Values quoted from earlier work as cited in publication PMC8623851, “The Structural Determinants for α1-Adrenergic/Serotonin Receptors Activity among Phenylpiperazine-Hydantoin Derivatives” (Molecules, 2021).

Legend:
human 5-HT7b receptor = human 5-HT7b receptor (Homo sapiens, UniProt P34969); design: expressed in transfected cells; host or cells: HEK-293; method as in PMID 31383628, PMID 29425815; details: previously reported arylpiperazine hydantoin derivatives; read-out: Ki 5-HT7; cited from earlier work
human 5-HT7b receptor, sequence (P34969 1-432): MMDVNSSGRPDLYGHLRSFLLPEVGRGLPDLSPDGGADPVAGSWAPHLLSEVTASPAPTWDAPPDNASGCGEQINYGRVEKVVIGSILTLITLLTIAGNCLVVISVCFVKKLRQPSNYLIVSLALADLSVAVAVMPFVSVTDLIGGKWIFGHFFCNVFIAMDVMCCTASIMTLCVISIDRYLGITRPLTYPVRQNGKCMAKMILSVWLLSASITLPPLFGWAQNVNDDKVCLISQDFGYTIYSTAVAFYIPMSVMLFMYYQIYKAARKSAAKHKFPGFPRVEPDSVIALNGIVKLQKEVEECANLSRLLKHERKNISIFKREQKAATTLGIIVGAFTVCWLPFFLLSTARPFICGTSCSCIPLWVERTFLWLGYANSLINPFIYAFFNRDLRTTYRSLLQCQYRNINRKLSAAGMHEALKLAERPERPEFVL

α1-receptor = target: α1-receptor; design: method as in PMID 31383628, PMID 29425815; details: previously reported arylpiperazine hydantoin derivatives; cited from earlier work

COc1ccc(C2(C)NC(=O)N(CC(O)CN3CCN(c4ccccc4OC)CC3)C2=O)cc1 (centres unmarked) [Compound 3]
Ki (human 5-HT7b receptor): 0.008 µM | Ki (α1-receptor): 0.53 µM
